Molecular target: T1, MsCI4 (Magnetospirillum gryphiswaldense, UniProt A4TVL0)
T1 construct: gene MGR_0879; wild-type single-domain bacterial cereblon homologue; pETHis1a, E. coli C41(DE3); His tag removed with TEV; three monomers per asymmetric unit; structural zinc; RED-NHS amine-labelled for MST
T1 sequence (A4TVL0 1-124): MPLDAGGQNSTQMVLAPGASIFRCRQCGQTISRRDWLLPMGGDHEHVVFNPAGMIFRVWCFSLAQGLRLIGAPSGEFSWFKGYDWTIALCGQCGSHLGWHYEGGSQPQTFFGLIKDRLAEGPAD
Assay: labelled microscale thermophoresis
Assay type: binding
Conditions: read-out: MsCI4 (K d, μM) / Labelled MST

Kd [µM]	Compound
0.409 ± 0.03	O=C1CC[C@H](N2Cc3c(OCc4ccc(CN5CCOCC5)cc4)cccc3C2=O)C(=O)N1 [Iberdomide]
4.84 ± 0.3	Cc1nc2cccc(N)c2c(=O)n1[C@H]1CCC(=O)NC1=O [Avadomide]
